Experimental data reported in patent US20020132823A1, “Assay method” (priority 2001, published 2002).

What was measured:
Recombinant human Prak = biological target: T1, Recombinant human Prak (Homo sapiens, UniProt Q8IW41); assay: In vitro kinase assay Prak (HSP27 phosphorylation, 33P-ATP); assay type: biochemical; conditions: activated recombinant human Prak, His-HSP27 substrate, 1 h at room temperature
T1 construct: His6; made in house; host or cells: E. coli
T1 sequence (Q8IW41 1-471 isoform Q8IW41-2): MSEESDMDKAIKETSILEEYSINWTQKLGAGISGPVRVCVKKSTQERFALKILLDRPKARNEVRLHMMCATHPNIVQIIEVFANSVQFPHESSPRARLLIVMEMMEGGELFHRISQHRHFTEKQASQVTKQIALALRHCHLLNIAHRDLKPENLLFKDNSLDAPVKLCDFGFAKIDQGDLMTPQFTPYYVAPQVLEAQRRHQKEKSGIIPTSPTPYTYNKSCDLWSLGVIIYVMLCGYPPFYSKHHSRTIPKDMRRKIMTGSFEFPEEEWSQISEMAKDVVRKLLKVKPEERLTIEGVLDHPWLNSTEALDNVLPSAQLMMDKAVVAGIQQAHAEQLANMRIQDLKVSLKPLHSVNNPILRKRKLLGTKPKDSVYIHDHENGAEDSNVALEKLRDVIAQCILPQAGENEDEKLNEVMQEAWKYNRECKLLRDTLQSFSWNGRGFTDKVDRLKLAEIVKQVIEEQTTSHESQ
Description: Recombinant human Prak was expressed in E. coli as His6-tagged protein substantially as described for Mnk1 by Tschopp et al. (Tschopp et al. (2000) Phoshorylation of eIF-4E on Ser 209 in response to mitogenic and inflammatory stimuli is faithfully detected by specific antibodies. Molecular Cell Biology Res. Comm. 3, 205-211). Phospho-p38a and His6-Hsp27 was prepared substantially as described (New et al. and Tschopp et al. ibid). All kinase reactions were performed with the following reaction buffer. Kinase buffer (5×): 125 mM Hepes (Stock at 1M; Gibco #15630-056), 125 mM β-glycerophosphate (Sigma #G-6251):125 mM MgCl2 (Merck #5833); 0.5 mM Sodium orthovanadate (Sigma #5-6508), 10 mM DTT (Boehringer Mannheim #708992), pH 7.4. The (5×) kinase buffer is freshly prepared from 25× stock solution. DTT is stored frozen at −20° C. in small aliquots and added immediately before use.
Prior to the assay, recombinant Prak is phosphorylated by incubation with phospho-p38. […]
The assay is stopped after one hour of incubation at room temperature by the addition of 5 μl EDTA 0.5M. […] After washing and drying the membrane, incorporated label is quantified by liquid scintillation counting.

[1] = test system: IL-1β release from human peripheral blood mononuclear cells; assay: IL-1β release from human PBMCs (LPS/γ-interferon stimulated, ELISA); assay type: cell-based; conditions: PBMC, LPS 5 μg/ml + γ-interferon 100 U/ml, 4.5 hours
Description: (§1) 2. TNFα and IL-1 Release from Human PBMCs
(§2) Cell Separation and Culture
(§3) All cell culture and ELISA work was done on 96 well plates (Costar). Mononuclear cells were prepared from the blood of healthy volunteers using ficoll-hypaque density separation according to the method of Hansel et al (Hansel TT et al. (1991) An improved immunomagnetic procedure for the isolation of highly purified human blood eosinophils. J. Imm. Methods 145, 105-110) and used at a concentration of 100,000 cells/well in RPMI 1640, 5% FCS (Gibco). Serial dilution of the test compound were made in DMSO and diluted with culture medium. Final DMSO concentration in the culture medium was 0.1%. Compound were preincubated with the cells for 30 minutes at 37° C., 5% CO2. Then, the cells were stimulated with LPS (5 μg/ml, Sigma) and γ-interferon (100 U/ml, Boehringer Mannheim) and cultured for 3 hours (for TNFα-determination) or 4.5 hours (for Il-1 β and Il-6 determination). […]
ELISA microtiter plates were coated with a murine anti-human IL-1^2 MAb (Human IL-1^2 Cytoset (Biosource International Inc., #CHC1214), 100 μl at 1 μg/ml) in PBS 0.02% NaN3 and incubated overnight at +4° C., The following day, microtiter plates were washed 4 times with PBS/0.05% Tween/0.02% NaN3 and blocked with 300 μl of PBS/2% bovine serum albumin (BSA)/0.02% NaN3 for 3 h. […] Plates were read in a microtiter reader (Bio-Rad) using filters of 405 and 490 nm.

[2] = test system: IL-6 production in human dermal fibroblasts; assay: IL-6 production in human dermal fibroblasts (IL-1β stimulated, ELISA); assay type: cell-based; conditions: Fibroblast, 1 μM compound, IL-1β 100 pg/ml, 16-17 h
Description: 4. IL-6 Production in Human Dermal Fibroblasts
Human dermal foreskin fibroblasts were obtained from Clonetics (CC-2509) and grown in FBM (Clonetics, CC-3131 ) including bFGF (1 ng/ml, CC-4065), insulin (5 μg/ml, CC-4021), and 2% FCS (CC-4101).
For induction of IL-6, cells were seeded at a density of 10^4 cells per well in a 48 well tissue cluster. The following day, cells were starved for 6-7 h in FBM containing 2% FCS. Compounds were added at final concentrations of 10 and 1 μM 30 min prior to stimulation with recombinant human IL-1β (100 pg/ml).
Cell supernatant was taken 16-17 h after stimulation and the amount of released IL-6 determined in a sandwich ELISA.
ELISA microtiter plates were coated with a murine anti-human IL-6 MAb (314-14 (Novartis Pharma; batch EN23,961, 5.5 mg/ml); 100 μl at 3 μg/ml) in PBS 0.02% NaN3 and incubated overnight at +4° C., The following day, microtiter plates were washed 4 times with PBS/0.05% Tween/0.02% NaN3 and blocked with 300 μl of PBS/3% bovine serum albumin (BSA)/0.02% NaN3 for 3 h. […] Plates were read in a microtiter reader (Bio-Rad) using filters of 405 and 490 nm. IL-6 levels in culture supernatants were calculated in reference to the standard curve using the cubic curve fit. Percentage inhibitions and IC50 values were calculated

[3] = test system: TNFα release from human peripheral blood mononuclear cells; assay: TNFα release from human PBMCs (LPS/γ-interferon stimulated, ELISA); assay type: cell-based; conditions: PBMC, LPS 5 μg/ml + γ-interferon 100 U/ml, 3 hours
Description: as §1, §2
as §3, with “0.1%.” for “0.1%. Compound were preincubated with the cells for 30 minutes at 37° C., 5% CO2. Then, the cells were stimulated with LPS (5 μg/ml, Sigma) and γ-interferon (100 U/ml, Boehringer Mannheim) and cultured for 3 hours (for TNFα-determination) or 4.5 hours (for Il-1 β and Il-6 determination).”
For ELISA determination, supernatants were diluted 1:1 and added into a plate coated with the anti humanTNF monoclonal antibody (357-101-4, clone 92030603 from European Collection of Animal Cell Cultures, antibody produced and purified within Novartis Pharma, 1 μg/ml in PBS) After overnight incubation, the plates were washed (4×) and biotinylated anti humanTNF monoclonal antibody 2-179-E11 (clone 92030602 (European Collection of Animal Cell Cultures), produced and purified in Novartis Pharma) was added to a final concentration of 1 μg/ml (100 μl/well). […] Color formation was monitored in a Bio-Tec ELx 808 plate reader at 405 nm in the kinetic mode for 30 minutes. […]

[4] = Cytotoxicity in THP-1 cells (MTT); assay type: cell-based; conditions: human, THP-1 cells stimulated with LPS/IFNγ, LPS/IFN stimulated
Description: THP-1 cells are obtained from ATCC and stored in liquid nitrogen. Medium for growth of THP-1 cells: RPMI 1640(GIBCO)+10% fetal bovine serum (GIBCO)+L-glutamine (2 mM)+penicillin/streptomycin (100 U/ml) +β-mercaptoethanol (0.05 mM). Cell culture medium for THP-1 incubation: RPMI 1640(GIBCO)+5% fetal bovine serum (GIBCO)+L-glutamine (2 mM)+penicillin/streptomycin (100 U/ml)+β-mercaptoethanol (0.05 mM).
The solution for stimulation is prepared by mixing equal volumes of IFNγ (Boehringer Mannheim, 2000 U/ml) and LPS (Sigma, L8274, 100 μg/ml). The dye solution is prepared from 500 mg MTT (Sigma, M2128) in 100 ml phosphate buffered saline (PBS) and kept under sterile conditions at 4° C. Sodium dodecyl sulfate (SDS) solution (10%) is made from 50 g SDS (Bioprobe Systems) and 5 ml 1N HCl. The solution is made up to 500 ml with distilled water and kept at room temperature (precipitates in the fridge). All incubations are done at 37° C. in 5% CO2. […]
The absorbance at 540 nm is read with a microplate reader (Biotec 808 Elx). […]
Calculation of cytotoxicity: The absorbance corresponding to 100% cytotoxicity equals the absorbance of wells without cells (no MTT converted into the blue dye). The absorbance corresponding to no cytotoxicity is taken from wells without substance, but with control solvent. Percent cytotoxicity is calculated for each substance concentration.

`O=S(=O)(c1ccc(Nc2nccc(N3CCCc4c(O)cccc43)n2)cc1)N1CCCCC1` [Compound A] showed an IC50 (Recombinant human Prak) of 1100 nM, an IC50 [1] of 1100 nM and an inhibition at 1 µM [2] of 100%. For the same compound, the IC50 [3] was 2200 nM and the IC50 at 24 h [4] was > 30 µM.
